Literature values in patent EP1693447A1, “Procedure for the preparation of superoxide dismutase” (Gnosis S.p.A., priority 2005, dated 2006).

Test system: superoxide dismutase
Conditions: SOD currently on the market

Question: For “Bovine liver - PEG superoxide dismutase - freeze-dried powder: type of SOD currently on the market, PEG superoxide dismutase”, which “superoxide dismutase units/mg of protein” value is on record?
Answer: Its value is “Bovine liver - PEG superoxide dismutase - freeze-dried powder ≥ 1,350 units/mg of protein”.
